Assay results taken from PubChem BioAssay AID2060900 (Molecular Pharmacology Branch, DTP, NCI, 2025).

Test system: 521955-158-R2-J5-PDC complex spheroids, viability
Assay: Anticancer human tumor 521955-158-R2-J5-PDC patient-derived pancreatic carcinoma cell line growth inhibition [RAS]
Settings: for IC50: curve of first compound; for viability, T/C: stronger effect = lower value
In short: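 Multi-cell-type spheroids: tumor cells plus HUVEC endothelial cells and mesenchymal stem cells. RAS-pathway inhibitors were combined with targeted agents, each dosed in half-log steps down from clinical Cmax, or from 10 microM when Cmax was unknown.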
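Further: compound exposure lasted seven days before the viability read.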
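Wherever viability, T/C is given: spheroids also contain HUVEC endothelial cells and mesenchymal stem cells as stroma.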

## CC(C)n1nc(-c2ccc3oc(N)nc3c2)c2c(N)ncnc21 + CCn1c(-c2cccnc2C(C)OC)c2c3cc(ccc31)N1CCOC(CC(NC(=O)C(C(C)C)N(C)C(=O)C3(F)CCN(C(=O)C#CC(C)(C)N(C)C)CC3)C(=O)N3CCCC(N3)C(=O)OCC(C)(C)C2)C1
Second compound 0.000949 µM
  IC50: 0.021 µM
Second compound 0.003 µM
  IC50: 0.02 µM
Second compound 0.00949 µM
  IC50: 0.0236 µM
Second compound 0.03 µM
  IC50: 0.0271 µM
Second compound 0.0949 µM
  IC50: 0.0192 µM
Second compound 0.3 µM
  IC50: 0.0135 µM
Second compound 0.000949 µM, first compound 0.000316 µM
  viability, T/C: 96.7%
Second compound 0.000949 µM, first compound 0.001 µM
  viability, T/C: 77.1%
Second compound 0.000949 µM, first compound 0.00316 µM
  viability, T/C: 83.1%
Second compound 0.000949 µM, first compound 0.01 µM
  viability, T/C: 61.4%
Second compound 0.000949 µM, first compound 0.0316 µM
  viability, T/C: 41.8%
Second compound 0.000949 µM, first compound 0.1 µM
  viability, T/C: 36.5%
Second compound 0.003 µM, first compound 0.000316 µM
  viability, T/C: 82%
Second compound 0.003 µM, first compound 0.001 µM
  viability, T/C: 91%
Second compound 0.003 µM, first compound 0.00316 µM
  viability, T/C: 91.4%
Second compound 0.003 µM, first compound 0.01 µM
  viability, T/C: 64.8%
Second compound 0.003 µM, first compound 0.0316 µM
  viability, T/C: 41.5%
Second compound 0.003 µM, first compound 0.1 µM
  viability, T/C: 30.1%
Second compound 0.00949 µM, first compound 0.000316 µM
  viability, T/C: 93.3%
Second compound 0.00949 µM, first compound 0.001 µM
  viability, T/C: 85.7%
Second compound 0.00949 µM, first compound 0.00316 µM
  viability, T/C: 83.6%
Second compound 0.00949 µM, first compound 0.01 µM
  viability, T/C: 70.3%
Second compound 0.00949 µM, first compound 0.0316 µM
  viability, T/C: 42.5%
Second compound 0.00949 µM, first compound 0.1 µM
  viability, T/C: 29.2%
Second compound 0.03 µM, first compound 0.000316 µM
  viability, T/C: 89.2%
Second compound 0.03 µM, first compound 0.001 µM
  viability, T/C: 101%
Second compound 0.03 µM, first compound 0.00316 µM
  viability, T/C: 90.4%
Second compound 0.03 µM, first compound 0.01 µM
  viability, T/C: 69.8%
Second compound 0.03 µM, first compound 0.0316 µM
  viability, T/C: 48.6%
Second compound 0.03 µM, first compound 0.1 µM
  viability, T/C: 34.2%
Second compound 0.0949 µM, first compound 0.000316 µM
  viability, T/C: 73.5%
Second compound 0.0949 µM, first compound 0.001 µM
  viability, T/C: 83.1%
Second compound 0.0949 µM, first compound 0.00316 µM
  viability, T/C: 86.2%
Second compound 0.0949 µM, first compound 0.01 µM
  viability, T/C: 63.3%
Second compound 0.0949 µM, first compound 0.0316 µM
  viability, T/C: 39.9%
Second compound 0.0949 µM, first compound 0.1 µM
  viability, T/C: 28.8%
Second compound 0.3 µM, first compound 0.000316 µM
  viability, T/C: 73.9%
Second compound 0.3 µM, first compound 0.001 µM
  viability, T/C: 70.3%
Second compound 0.3 µM, first compound 0.00316 µM
  viability, T/C: 85.2%
Second compound 0.3 µM, first compound 0.01 µM
  viability, T/C: 55.2%
Second compound 0.3 µM, first compound 0.0316 µM
  viability, T/C: 40.7%
Second compound 0.3 µM, first compound 0.1 µM
  viability, T/C: 30%

## CC1(C)CCC(Nc2ncc(C(F)(F)F)c(-c3c[nH]c4c(P(C)(C)=O)c(C#N)ccc34)n2)CN1 (centres undefined) + C=CC(=O)N1CCN(c2nc(OCC3CCCN3C)nc3c(F)c(-c4nc(N)cc(C)c4C(F)(F)F)c(Cl)cc23)C(C)C1
Second compound 0.00316 µM
  IC50: > 0.3 µM
Second compound 0.01 µM
  IC50: > 0.3 µM
Second compound 0.0316 µM
  IC50: > 0.3 µM
Second compound 0.1 µM
  IC50: > 0.3 µM
Second compound 0.316 µM
  IC50: > 0.3 µM
Second compound 1 µM
  IC50: > 0.3 µM
Second compound 0.00316 µM, first compound 0.000949 µM
  viability, T/C: 80.7%
Second compound 0.00316 µM, first compound 0.003 µM
  viability, T/C: 73.7%
Second compound 0.00316 µM, first compound 0.00949 µM
  viability, T/C: 67.7%
Second compound 0.00316 µM, first compound 0.03 µM
  viability, T/C: 51.1%
Second compound 0.00316 µM, first compound 0.0949 µM
  viability, T/C: 49.5%
Second compound 0.00316 µM, first compound 0.3 µM
  viability, T/C: 53.3%
Second compound 0.01 µM, first compound 0.000949 µM
  viability, T/C: 81.2%
Second compound 0.01 µM, first compound 0.003 µM
  viability, T/C: 78.5%
Second compound 0.01 µM, first compound 0.00949 µM
  viability, T/C: 52.6%
Second compound 0.01 µM, first compound 0.03 µM
  viability, T/C: 53%
Second compound 0.01 µM, first compound 0.0949 µM
  viability, T/C: 58.3%
Second compound 0.01 µM, first compound 0.3 µM
  viability, T/C: 60.4%
Second compound 0.0316 µM, first compound 0.000949 µM
  viability, T/C: 75.4%
Second compound 0.0316 µM, first compound 0.003 µM
  viability, T/C: 78.7%
Second compound 0.0316 µM, first compound 0.00949 µM
  viability, T/C: 57.5%
Second compound 0.0316 µM, first compound 0.03 µM
  viability, T/C: 55.8%
Second compound 0.0316 µM, first compound 0.0949 µM
  viability, T/C: 73%
Second compound 0.0316 µM, first compound 0.3 µM
  viability, T/C: 53.8%
Second compound 0.1 µM, first compound 0.000949 µM
  viability, T/C: 90%
Second compound 0.1 µM, first compound 0.003 µM
  viability, T/C: 86.3%
Second compound 0.1 µM, first compound 0.00949 µM
  viability, T/C: 57.9%
Second compound 0.1 µM, first compound 0.03 µM
  viability, T/C: 64.2%
Second compound 0.1 µM, first compound 0.0949 µM
  viability, T/C: 65.8%
Second compound 0.1 µM, first compound 0.3 µM
  viability, T/C: 56.9%
Second compound 0.316 µM, first compound 0.000949 µM
  viability, T/C: 84.5%
Second compound 0.316 µM, first compound 0.003 µM
  viability, T/C: 76.5%
Second compound 0.316 µM, first compound 0.00949 µM
  viability, T/C: 51.3%
Second compound 0.316 µM, first compound 0.03 µM
  viability, T/C: 65.3%
Second compound 0.316 µM, first compound 0.0949 µM
  viability, T/C: 67%
Second compound 0.316 µM, first compound 0.3 µM
  viability, T/C: 49.2%
Second compound 1 µM, first compound 0.000949 µM
  viability, T/C: 106%
Second compound 1 µM, first compound 0.003 µM
  viability, T/C: 77.5%
Second compound 1 µM, first compound 0.00949 µM
  viability, T/C: 56.3%
Second compound 1 µM, first compound 0.03 µM
  viability, T/C: 51.9%
Second compound 1 µM, first compound 0.0949 µM
  viability, T/C: 63.9%
Second compound 1 µM, first compound 0.3 µM
  viability, T/C: 55.4%
